According to patent US11945822B2, “Pyrazolo-triazine and/or pyrazolo-pxrimidine derivatives as selective inhibitor of cyclin dependent kinase” (QURIENT CO., LTD., priority 2018, dated 2024):

Tests used:
CDK7/Cyclin H/MNAT1 = target: T1, CDK7/Cyclin H/MNAT1 (Homo sapiens, UniProt P50613); assay: Enzymatic assay for CDK7 (FRET based LANCE Ultra kinase assay); format: biochemical; conditions: for IC50: read-out: CDK7 enzymatic activity (IC50 activity range)
T1 construct: purchased Invitrogen PR6749B
T1 sequence (P50613 whole entry): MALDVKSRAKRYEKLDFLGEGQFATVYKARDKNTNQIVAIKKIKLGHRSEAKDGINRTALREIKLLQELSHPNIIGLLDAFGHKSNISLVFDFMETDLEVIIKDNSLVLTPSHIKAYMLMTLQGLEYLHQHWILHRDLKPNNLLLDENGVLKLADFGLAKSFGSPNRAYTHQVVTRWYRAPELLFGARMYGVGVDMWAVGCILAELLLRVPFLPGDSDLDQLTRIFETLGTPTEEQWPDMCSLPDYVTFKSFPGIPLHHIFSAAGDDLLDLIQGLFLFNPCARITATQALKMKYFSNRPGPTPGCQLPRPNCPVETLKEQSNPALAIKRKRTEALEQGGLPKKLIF
T1 sequence (P51946 whole entry partner): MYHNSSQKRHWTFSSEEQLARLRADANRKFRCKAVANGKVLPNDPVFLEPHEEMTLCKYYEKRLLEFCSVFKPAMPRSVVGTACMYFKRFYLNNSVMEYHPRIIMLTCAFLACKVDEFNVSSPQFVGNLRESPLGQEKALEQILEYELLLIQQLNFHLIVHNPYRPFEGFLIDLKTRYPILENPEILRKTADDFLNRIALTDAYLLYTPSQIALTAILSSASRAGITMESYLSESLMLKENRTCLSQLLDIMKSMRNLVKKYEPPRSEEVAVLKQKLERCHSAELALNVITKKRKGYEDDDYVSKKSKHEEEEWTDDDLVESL
T1 sequence (P51948 whole entry partner): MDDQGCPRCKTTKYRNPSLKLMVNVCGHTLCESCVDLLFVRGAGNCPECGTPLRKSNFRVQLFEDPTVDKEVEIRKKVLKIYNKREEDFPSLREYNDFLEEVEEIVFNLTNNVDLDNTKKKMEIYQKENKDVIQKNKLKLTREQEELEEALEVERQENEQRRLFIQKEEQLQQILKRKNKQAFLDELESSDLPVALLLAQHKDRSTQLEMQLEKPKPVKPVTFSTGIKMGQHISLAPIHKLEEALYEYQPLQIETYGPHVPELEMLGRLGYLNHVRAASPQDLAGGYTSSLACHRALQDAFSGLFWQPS
Outline: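 Inhibition was measured at Km ATP by time-resolved FRET between a Eu anti-phospho antibody and a phosphorylated ULight peptide. The enzyme was the purified CDK7/cyclin complex, and data were curve-fitted.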

CDK1/Cyclin B = target: T2, CDK1/Cyclin B (Homo sapiens, UniProt P06493); assay: Enzymatic assay for CDK1 (FRET based LANCE Ultra kinase assay); format: biochemical; conditions: read-out: CDK1 enzymatic activity (IC50 activity range)
T2 construct: purchased Invitrogen PR4768C
T2 sequence (P06493 whole entry): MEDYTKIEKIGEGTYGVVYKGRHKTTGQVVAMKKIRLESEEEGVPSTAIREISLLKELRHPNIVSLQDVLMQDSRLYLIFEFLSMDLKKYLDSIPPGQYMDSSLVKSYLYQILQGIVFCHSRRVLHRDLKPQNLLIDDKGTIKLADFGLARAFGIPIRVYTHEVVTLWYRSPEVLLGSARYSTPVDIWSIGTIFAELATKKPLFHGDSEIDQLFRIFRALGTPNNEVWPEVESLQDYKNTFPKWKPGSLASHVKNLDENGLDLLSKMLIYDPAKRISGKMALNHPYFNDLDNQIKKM
T2 sequence (P14635 whole entry partner): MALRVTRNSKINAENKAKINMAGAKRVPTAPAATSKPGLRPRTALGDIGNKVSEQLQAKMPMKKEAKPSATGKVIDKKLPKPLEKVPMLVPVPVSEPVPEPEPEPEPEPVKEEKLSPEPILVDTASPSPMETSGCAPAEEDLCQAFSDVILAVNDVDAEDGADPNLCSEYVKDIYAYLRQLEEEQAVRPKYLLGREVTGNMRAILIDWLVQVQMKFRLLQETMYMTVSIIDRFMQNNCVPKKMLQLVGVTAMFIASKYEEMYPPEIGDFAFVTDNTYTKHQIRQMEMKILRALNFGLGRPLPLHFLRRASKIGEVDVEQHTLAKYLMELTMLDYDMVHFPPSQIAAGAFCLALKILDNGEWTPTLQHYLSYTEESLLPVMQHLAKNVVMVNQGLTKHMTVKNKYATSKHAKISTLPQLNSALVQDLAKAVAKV
Outline: (§1)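 Each CDK complex ([…]) phosphorylated 68 nM ULight-MBP peptide with ATP at Km for 60 min at 23° C., against 8 compound doses (4-fold dilutions). EDTA/Eu-anti-phospho-MBP detection, 60 min, then TR-FRET emission at 615 and 665 nm.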

MV4-11 = assay: Cellular MV4-11 viability assay (CellTiter-Glo, 72 hours); format: cell-based; conditions: Homo sapiens
Outline: (§2)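 Growth inhibition is assessed over a 72-hour incubation at 37 °C in 5% CO2, relative to DMSO vehicle (final concentration less than 0.1%). Luminescence from CellTiter-Glo serves as the viability signal.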

A2780 = assay: Cellular A2780 viability assay (CellTiter-Glo, 72 hours); format: cell-based; conditions: Homo sapiens
Source text: Human T-cell acute lymphoblastic leukemia cell line, MOLT-4 (ATCC, Cat #CRL-1582), Human multiple myeloma cell line, RPMI-8226 (Invitrogen, Cat #22400-089) and MM.1S (ATCC, Cat #CRL-2974), NSCLC (Non-small cell lung cancer) cell line H460 (ATCC, Cat #HTB-177), Human colon colorectal carcinoma cell line HCT116 (ATCC, Cat #CCL-247), Human acute monocytic leukemia cell line MV4-11 (ATCC, Cat #CRL-9591), OVCAR-3 (ATCC, Cat #HTB-161) and A2780 (ECACC, Cat #93112519) were obtained from ATCC. Cells were grown in RPMI-1640 media (Invitrogen, Cat #22400-089) supplemented with 10% FBS (Invitrogen, Cat #10099141) and 1% penicillin/streptomycin (Invitrogen, Cat #15070063) and cultured at 37° C., 5% CO2 in a humidified chamber. All cell lines were routinely tested for mycoplasma.
The effect of the CDK7 inhibitor to inhibit the growth of target cancer cells was evaluated through the 72 hours time period of viability assay. Briefly, the candidate cell line ware plated in 96 well plate at the following density of cells respectively. 1×10^4 cells/well for MOLT-4, RPMI-8226, MV4-11 and MM.1S, 5×10^3 for H460, HCT116 and OVCAR-3 and IX 10^3 for A2780. After 24 hours, the cells were treated with various concentrations of the compound (ranging from 0.0015 uM to 10 uM). DMSO solvent without compound served as a control and final DMSO concentration less than 0.1%. After 72 hours of incubation at 37° C., 5% CO2 incubator, cells were analyzed for the viability using the CellTiter-Glo Luminescent Cell Viability Assay (Promega, Cat #G7570). All viability assays were performed in duplicate and Luminescence was read using an Envision (Perkin Elmer, USA). Data was analyzed using XLfit software.

CDK2/Cyclin A = target: T3, CDK2/Cyclin A (Homo sapiens, UniProt P24941); assay: Enzymatic assay for CDK2 (FRET based LANCE Ultra kinase assay); format: biochemical; conditions: read-out: CDK2 enzymatic activity (IC50 activity range)
T3 construct: purchased Invitrogen PV6290
Outline: as §1

H460 = assay: Cellular H460 viability assay (CellTiter-Glo, 72 hours); format: cell-based; conditions: Homo sapiens, NCI-H460
Outline: as §2

CDK5/p25 = target: T4, CDK5/p25 (Homo sapiens, UniProt Q00535); assay: Enzymatic assay for CDK5 (FRET based LANCE Ultra kinase assay); format: biochemical; conditions: read-out: CDK5 enzymatic activity (IC50 activity range)
T4 construct: purchased Invitrogen PR8543B
T4 sequence (Q00535 whole entry): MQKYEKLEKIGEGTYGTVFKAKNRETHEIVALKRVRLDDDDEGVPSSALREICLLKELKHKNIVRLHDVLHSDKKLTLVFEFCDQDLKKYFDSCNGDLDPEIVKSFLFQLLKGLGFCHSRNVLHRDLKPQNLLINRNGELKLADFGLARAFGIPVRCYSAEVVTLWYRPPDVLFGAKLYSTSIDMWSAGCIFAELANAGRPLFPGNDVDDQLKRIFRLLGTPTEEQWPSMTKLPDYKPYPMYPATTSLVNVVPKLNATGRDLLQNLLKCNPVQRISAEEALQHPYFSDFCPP
T4 sequence (Q15078 99-307 partner limits assumed): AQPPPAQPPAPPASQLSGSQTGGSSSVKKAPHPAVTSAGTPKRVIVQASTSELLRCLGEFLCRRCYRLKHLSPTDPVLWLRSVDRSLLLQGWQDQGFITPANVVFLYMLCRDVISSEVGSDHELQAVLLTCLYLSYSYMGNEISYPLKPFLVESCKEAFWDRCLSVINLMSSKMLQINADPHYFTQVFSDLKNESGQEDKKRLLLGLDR
Outline: as §1

Compound | CDK1/CDK7: Selectivity of CDK7 inhibition over CDK1 inhibition (CDK7/Cyclin H/MNAT1) | CDK2/CDK7: Selectivity of CDK7 inhibition over CDK2 inhibition (CDK7/Cyclin H/MNAT1) | CDK5/CDK7: Selectivity of CDK7 inhibition over CDK5 inhibition (CDK7/Cyclin H/MNAT1) | IC50 (CDK7/Cyclin H/MNAT1) | IC50 (CDK1/Cyclin B) | IC50 (MV4-11) | IC50 (A2780) | IC50 (CDK2/Cyclin A) | IC50 (H460) | IC50 (CDK5/p25)
CC(C)c1cnn2c(NCc3ccccc3-c3ccc4ccccc4n3)nc(N3CCCC[C@H]3CCO)nc12 [Compound 260] | B (B=less than 200 fold, but greater than 20 fold) | B (B=less than 200 fold, but greater than 20 fold) | B (B=less than 200 fold, but greater than 20 fold) | 0.1 to 1 µM | > 1 µM | 1 to 10 µM | 1 to 10 µM | > 1 µM | 1 to 10 µM | > 1 µM
CC(C)c1cnn2c(NCc3ccccc3-n3cccn3)nc(N3CCc4ncccc4C3)nc12 [Compound 275] | A (A=greater than 200 fold) | B (B=less than 200 fold, but greater than 20 fold) | B (B=less than 200 fold, but greater than 20 fold) | < 0.1 µM | > 1 µM | 1 to 10 µM | 1 to 10 µM | > 1 µM | 1 to 10 µM | > 1 µM
CC(C)c1cnn2c(NCc3ccccc3-c3ccc4ccccc4n3)nc(NCC3CCOCC3)nc12 [Compound 267] | B (B=less than 200 fold, but greater than 20 fold) | B (B=less than 200 fold, but greater than 20 fold) | B (B=less than 200 fold, but greater than 20 fold) | 0.1 to 1 µM | > 1 µM | > 10 µM | 1 to 10 µM | > 1 µM | 1 to 10 µM | > 1 µM
CCN1CC[C@H](CNc2nc(NCc3ccccc3-c3ccc4ccccc4n3)n3ncc(C(C)C)c3n2)[C@@H](O)C1 [Compound 261] | A (A=greater than 200 fold) | A (A=greater than 200 fold) | A (A=greater than 200 fold) | < 0.1 µM | > 1 µM | 1 to 10 µM | ≤ 1 µM | > 1 µM | < 1 µM | > 1 µM
CC(C)c1cnn2c(NCc3c(Cl)cccc3N3CC[C@@H](C(C)(C)O)C3)nc(N3CCC(N)CC3)nc12 [Compound 254] | A (A=greater than 200 fold) | B (B=less than 200 fold, but greater than 20 fold) | B (B=less than 200 fold, but greater than 20 fold) | < 0.1 µM | > 1 µM | < 1 µM | ≤ 1 µM | > 1 µM | < 1 µM | 0.1 to 1 µM
CC(C)c1cnn2c(NCc3c(Cl)cccc3N3CC[C@H](C(C)(C)O)C3)nc(N3CCC(N)CC3)nc12 [Compound 250] | A (A=greater than 200 fold) | A (A=greater than 200 fold) | B (B=less than 200 fold, but greater than 20 fold) | < 0.1 µM | > 1 µM | 1 to 10 µM | 1 to 10 µM | > 1 µM | 1 to 10 µM | > 1 µM
CC(C)c1cnn2c(NCc3c(Cl)cccc3-c3ncc(C(C)(C)O)s3)nc(N3CCC(N)CC3)nc12 [Compound 249] | A (A=greater than 200 fold) | A (A=greater than 200 fold) | A (A=greater than 200 fold) | < 0.1 µM | > 1 µM | < 1 µM | ≤ 1 µM | > 1 µM | < 1 µM | > 1 µM
